Biological target: T1, ERα (Homo sapiens, UniProt P03372)
T1 construct: host or cells: MCF7
T1 sequence (P03372 1-595): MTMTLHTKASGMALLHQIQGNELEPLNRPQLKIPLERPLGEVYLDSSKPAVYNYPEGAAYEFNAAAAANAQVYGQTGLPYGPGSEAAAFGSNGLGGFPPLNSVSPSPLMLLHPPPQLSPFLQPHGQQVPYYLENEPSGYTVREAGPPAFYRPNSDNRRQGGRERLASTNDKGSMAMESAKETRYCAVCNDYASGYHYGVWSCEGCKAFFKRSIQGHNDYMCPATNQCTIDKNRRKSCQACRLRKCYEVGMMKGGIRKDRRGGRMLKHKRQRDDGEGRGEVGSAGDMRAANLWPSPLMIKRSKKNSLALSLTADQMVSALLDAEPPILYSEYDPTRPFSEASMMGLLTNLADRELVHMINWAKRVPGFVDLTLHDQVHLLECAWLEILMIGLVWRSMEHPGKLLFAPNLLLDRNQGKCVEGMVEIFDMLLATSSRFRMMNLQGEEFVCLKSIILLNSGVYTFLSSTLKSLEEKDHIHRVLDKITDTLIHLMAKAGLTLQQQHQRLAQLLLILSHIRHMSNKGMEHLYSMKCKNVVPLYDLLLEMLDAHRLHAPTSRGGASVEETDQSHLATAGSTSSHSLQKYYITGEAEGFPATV
Experiment: Estrogen receptor degradation activity: breast cancer cell ERα in cell western assay in MCF7 cells
Type: cell-based
Settings: 4 hours, relative to fulvestrant 0.1 μM positive control
Experimental: Test: Estrogen receptor degradation activity
Said test involves measuring the in vitro degradation activity of the compounds of the table 1.
The measurements of the degradation activities were made using a breast cancer cell ERα in cell western assay as described hereunder.
MCF7 cells (ATCC) were seeded in 384 wells microplate (collagen coated) at a concentration of 10000 cells/30 μL per well in red phenol free MEM alpha medium (invitrogen) containing 5% charcoal dextran striped FBS. The following day, 9 points serial 1:5 dilution of each compound was added to the cells in 2.5 μL at final concentrations ranging from 0.3-0.0000018 μM (in table 2), or 0.1 μM for fulvestrant (using as positive control). At 4 hours post compound addition the cells were fixed by adding 25 μL of formalin (final concentration 5% formalin containing 0.1% triton) for 10 minutes at RT and then washed twice with PBS. Then, 50 μL of LI-COR blocking buffer containing 0.1% Triton was added to plate for 30 minutes at RT. LI-COR blocking buffer was removed and cells were incubated overnight at cold room with 50 μL anti-ER rabbit monoclonal antibody (Thermo scientific MA1-39540) diluted at 1:1000 in LI-COR blocking buffer containing 0.1% tween-20. Wells which were treated with blocking buffer but no antibody were used as background control. Wells were washed twice with PBS (0.1% tween-20) and incubated at 37° C. for 60 minutes in LI-COR (0.1% tween-20) containing goat anti-rabbit antibody Alexa 488 (1:1000) and Syto-64 a DNA dye (2 μM final concentration). Cells were then washed 3 times in PBS and scanned in ACUMEN explorer (TTP-Labtech). Integrated intensities in the green fluorescence and red fluorescence were measured to determine the levels of ERα and DNA respectively.
The degradation activity with respect to estrogen receptors in this test is given by the concentration which degrades 50% of the estrogen receptor (or IC50) in nM.
The % of ERα levels decrease were determined as follows: % inhibition=100*(1−(sample−fulvestrant:DMSO−fulvestrant)).

Structure (SMILES) | % Degradation At 0.3 μM
N#Cc1ccccc1C1=C(c2ccc(CC3CN(CCCF)C3)cc2)c2ccc3[nH]ccc3c2CCC1 [Compound 12, 2-(6-(4-((1-(3-fluoropropyl)azetidin-3-yl)methyl)phenyl)-3,8,9,10-tetrahydrocyclohepta[e]indol-7-yl)benzonitrile] | 85%
Oc1c(F)ccc(C2=C(c3ccc(CC4CN(CCCF)C4)cc3)c3ccc4[nH]ccc4c3CCC2)c1F [Compound 6, 2,6-difluoro-3-(6-(4-((1-(3-fluoropropyl)azetidin-3-yl)methyl)phenyl)-3,8,9,10-tetrahydrocyclohepta[e]indol-7-yl)phenol] | 90%
COc1cccc(C2=C(c3ccc(CC4CN(CCCF)C4)cc3)c3ccc4[nH]ccc4c3CCC2)c1OC [Compound 9, 7-(2,3-dimethoxyphenyl)-6-(4-((1-(3-fluoropropyl)azetidin-3-yl)methyl)phenyl)-3,8,9,10-tetrahydrocyclohepta[e]indole] | 80%
N#Cc1cccc(C2=C(c3ccc(CC4CN(CCCF)C4)cc3)c3ccc4[nH]ccc4c3CCC2)c1 [Compound 11, 3-(6-(4-((1-(3-fluoropropyl)azetidin-3-yl)methyl)phenyl)-3,8,9,10-tetrahydrocyclohepta[e]indol-7-yl)benzonitrile] | 75%
Cc1c(Cl)cccc1C1=C(c2ccc(C=C3CN(CCCF)C3)cc2)c2ccc3[nH]ccc3c2CCC1 [Compound 3, 7-(3-chloro-2-methylphenyl)-6-(4-((1-(3-fluoropropyl)azetidin-3-ylidene)methyl)phenyl)-3,8,9,10-tetrahydrocyclohepta[e]indole] | 91%
Cc1c(Cl)cccc1C1=C(c2ccc(CC3CN(CCCF)C3)cc2)c2ccc3[nH]ccc3c2CCC1 [Compound 8, 7-(3-chloro-2-methylphenyl)-6-(4-((1-(3-fluoropropyl)azetidin-3-yl)methyl)phenyl)-3,8,9,10-tetrahydrocyclohepta[e]indole] | 83%
FCCCN1CC[C@H](Oc2ccc(C3=C(c4ccc(Cl)cc4Cl)CCCc4c3ccc3[nH]ccc43)cc2)C1 [Compound 4, (S)-7-(2,4-dichlorophenyl)-6-(4-((1-(3-fluoropropyl)pyrrolidin-3-yl)oxy)phenyl)-3,8,9,10-tetrahydrocyclohepta[e]indole] | 85%
FCCCN1CC(Cc2ccc(C3=C(c4cccc(C(F)(F)F)c4)CCCc4c3ccc3[nH]ccc43)cc2)C1 [Compound 10, 6-(4-((1-(3-fluoropropyl)azetidin-3-yl)methyl)phenyl)-7-(3-(trifluoromethyl)phenyl)-3,8,9,10-tetrahydrocyclohepta[e]indole] | 73%
Cc1cc(F)ccc1C1=C(c2ccc(CC3CN(CCCF)C3)cc2)c2ccc3[nH]ccc3c2CCC1 [Compound 1, 7-(4-fluoro-2-methylphenyl)-6-(4-((1-(3-fluoropropyl)azetidin-3-yl)methyl)phenyl)-3,8,9,10-tetrahydrocyclohepta[e]indole] | 80%
FCCCN1CC[C@H](Oc2ccc(C3=C(C4=CCC(F)(F)CC4)CCCc4c3ccc3[nH]ccc43)cc2)C1 [Compound 5, (S)-7-(4,4-difluorocyclohex-1-en-1-yl)-6-(4-((1-(3-fluoropropyl)pyrrolidin-3-yl)oxy)phenyl)-3,8,9,10-tetrahydrocyclohepta[e]indole] | 95%
COc1nccc(C2=C(c3ccc(CC4CN(CCCF)C4)cc3)c3ccc4[nH]ccc4c3CCC2)c1F [Compound 2, 7-(3-fluoro-2-methoxypyridin-4-yl)-6-(4-((1-(3-fluoropropyl)azetidin-3-yl)methyl)phenyl)-3,8,9,10-tetrahydrocyclohepta[e]indole] | 92%

More lines, now with the values ahead:

% Degradation At 0.3 μM | Structure (SMILES)
91% | Cc1c(Cl)cccc1C1=C(c2ccc(/C=C3/CCN(CCCF)C3)cc2)c2ccc3[nH]ccc3c2CCC1 [Compound 29, (Z)-7-(3-chloro-2-methylphenyl)-6-(4-((1-(3-fluoropropyl)pyrrolidin-3-ylidene)methyl)phenyl)-3,8,9,10-tetrahydrocyclohepta[e]indole]
69% | OC/C=C/C1=C(c2ccc(CC3CN(CCCF)C3)cc2)c2ccc3[nH]ccc3c2CCC1 [Compound 17, (E)-3-(6-(4-((1-(3-fluoropropyl)azetidin-3-yl)methyl)phenyl)-3,8,9,10-tetrahydrocyclohepta[e]indol-7-yl)prop-2-en-1-ol]
68% | O=C(O)c1cccc(C2=C(c3ccc(CC4CN(CCCF)C4)cc3)c3ccc4[nH]ccc4c3CCC2)c1 [Compound 22, 3-(6-(4-((1-(3-fluoropropyl)azetidin-3-yl)methyl)phenyl)-3,8,9,10-tetrahydrocyclohepta[e]indol-7-yl)benzoic acid]
91% | Cc1c(Cl)cccc1C1=C(c2ccc(NC3CN(CCCF)C3)cc2)c2ccc3[nH]ccc3c2CCC1 [Compound 27, N-(4-(7-(3-chloro-2-methylphenyl)-3,8,9,10-tetrahydrocyclohepta[e]indol-6-yl)phenyl)-1-(3-fluoropropyl)azetidin-3-amine]
74% | FCCCN1CC(Cc2ccc(C3=C(C4=CCOCC4)CCCc4c3ccc3[nH]ccc43)cc2)C1 [Compound 16, 7-(3,6-dihydro-2H-pyran-4-yl)-6-(4-((1-(3-fluoropropyl)azetidin-3-yl)methyl)phenyl)-3,8,9,10-tetrahydrocyclohepta[e]indole]
72% | N#Cc1ccc(C2=C(c3ccc(CC4CN(CCCF)C4)cc3)c3ccc4[nH]ccc4c3CCC2)cc1 [Compound 13, 4-(6-(4-((1-(3-fluoropropyl)azetidin-3-yl)methyl)phenyl)-3,8,9,10-tetrahydrocyclohepta[e]indol-7-yl)benzonitrile]
76% | OCc1ccc(C2=C(c3ccc(CC4CN(CCCF)C4)cc3)c3ccc4[nH]ccc4c3CCC2)cc1 [Compound 20, (4-(6-(4-((1-(3-fluoropropyl)azetidin-3-yl)methyl)phenyl)-3,8,9,10-tetrahydrocyclohepta[e]indol-7-yl)phenyl)methanol]
75% | OCCCC1=C(c2ccc(CC3CN(CCCF)C3)cc2)c2ccc3[nH]ccc3c2CCC1 [Compound 25, 3-(6-(4-((1-(3-fluoropropyl)azetidin-3-yl)methyl)phenyl)-3,8,9,10-tetrahydrocyclohepta[e]indol-7-yl)propan-1-ol]
91% | COc1ccc(C2=C(c3ccc(CC4CN(CCCF)C4)cc3)c3ccc4[nH]ccc4c3CCC2)cn1 [Compound 15, 6-(4-((1-(3-fluoropropyl)azetidin-3-yl)methyl)phenyl)-7-(6-methoxypyridin-3-yl)-3,8,9,10-tetrahydrocyclohepta[e]indole]
77% | CC(C)(O)/C=C/C1=C(c2ccc(CC3CN(CCCF)C3)cc2)c2ccc3[nH]ccc3c2CCC1 [Compound 18, (E)-4-(6-(4-((1-(3-fluoropropyl)azetidin-3-yl)methyl)phenyl)-3,8,9,10-tetrahydrocyclohepta[e]indol-7-yl)-2-methylbut-3-en-2-ol]
91% | COc1cc(C2=C(c3ccc(CC4CN(CCCF)C4)cc3)c3ccc4[nH]ccc4c3CCC2)ccn1 [Compound 14, 6-(4-((1-(3-fluoropropyl)azetidin-3-yl)methyl)phenyl)-7-(2-methoxypyridin-4-yl)-3,8,9,10-tetrahydrocyclohepta[e]indole]
92% | O=C(O)/C=C/C1=C(c2ccc(CC3CN(CCCF)C3)cc2)c2ccc3[nH]ccc3c2CCC1 [Compound 24, (E)-3-(6-(4-((1-(3-fluoropropyl)azetidin-3-yl)methyl)phenyl)-3,8,9,10-tetrahydrocyclohepta[e]indol-7-yl)acrylic acid]
91% | Cc1c(Cl)cccc1C1=C(c2ccc(OC3CN(CCCF)C3)cc2)c2ccc3[nH]ccc3c2CCC1 [Compound 26, 7-(3-chloro-2-methylphenyl)-6-(4-((1-(3-fluoropropyl)azetidin-3-yl)oxy)phenyl)-3,8,9,10-tetrahydrocyclohepta[e]indole]

Source: patent publication US20250368619A1, “SUBSTITUTED TETRAHYDROCYCLOHEPTA[E]INDOLE DERIVATIVES, PROCESSES FOR THEIR PREPARATION AND THERAPEUTIC USES THEREOF” (SANOFI, priority 2022, published 2025)
